Test results taken from ChEMBL document CHEMBL1759972, “Phenoxyacetic acids as PPARδ partial agonists: synthesis, optimization, and in vivo efficacy” (Bioorg Med Chem Lett, 2011).
In brackets after ≈: the same amount, converted by molar mass. Activity calls are given as the source filed them. The calls are words filed in the database; no cut-off is given here.

Assays:
[1] = biological target: T1, Peroxisome proliferator-activated receptor alpha (Homo sapiens, UniProt Q07869); experiment: Displacement of [3H]GW 2433 from human PPARalpha by scintillation proximity assay
T1 sequence (Q07869 whole entry): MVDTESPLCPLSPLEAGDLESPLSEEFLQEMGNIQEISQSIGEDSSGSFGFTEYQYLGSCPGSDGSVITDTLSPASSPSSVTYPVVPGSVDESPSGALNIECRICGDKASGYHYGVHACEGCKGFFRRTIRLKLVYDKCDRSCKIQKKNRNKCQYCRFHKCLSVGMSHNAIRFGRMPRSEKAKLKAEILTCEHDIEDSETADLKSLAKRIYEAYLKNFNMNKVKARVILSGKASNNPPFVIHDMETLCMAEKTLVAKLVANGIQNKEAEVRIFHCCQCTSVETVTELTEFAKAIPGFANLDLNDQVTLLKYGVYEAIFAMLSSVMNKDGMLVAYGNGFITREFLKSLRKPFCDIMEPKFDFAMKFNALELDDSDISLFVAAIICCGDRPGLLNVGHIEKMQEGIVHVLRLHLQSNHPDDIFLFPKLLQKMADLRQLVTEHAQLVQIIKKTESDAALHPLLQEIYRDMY

[2] = biological target: T2, Peroxisome proliferator-activated receptor delta (Homo sapiens, UniProt Q03181)
T2 sequence (Q03181 whole entry): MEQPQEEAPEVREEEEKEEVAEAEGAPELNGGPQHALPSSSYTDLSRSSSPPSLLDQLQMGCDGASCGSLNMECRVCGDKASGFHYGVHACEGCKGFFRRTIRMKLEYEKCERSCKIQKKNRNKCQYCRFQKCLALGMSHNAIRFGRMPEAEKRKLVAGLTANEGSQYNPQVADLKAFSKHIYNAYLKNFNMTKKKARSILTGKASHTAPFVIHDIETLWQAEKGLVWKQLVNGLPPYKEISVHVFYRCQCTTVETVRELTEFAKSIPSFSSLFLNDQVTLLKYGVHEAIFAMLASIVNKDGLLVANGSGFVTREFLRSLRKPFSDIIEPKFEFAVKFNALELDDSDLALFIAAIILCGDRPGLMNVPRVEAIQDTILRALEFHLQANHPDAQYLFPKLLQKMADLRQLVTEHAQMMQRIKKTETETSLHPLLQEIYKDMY
Description: Partial agonist activity at human PPARdelta expressed in african green monkey CV1 cells transfected with Gal4 assessed as beta-galactosidase activity by transactivation assay

[3] = biological target: T2, Peroxisome proliferator-activated receptor delta; remark: listed apart in the source
Description: Displacement of [3H]GW 2433 from human PPARdelta by scintillation proximity assay

Mus musculus [4] = experiment: Dose normalized AUC (0 to 24 hrs) in CD mouse at 10 mg/kg, po; assay type: ADME, organism-based; set-up: time < 24 hr, dose 10 mg/kg, route oral; conditions: in vivo
Cytochrome P450 1A2 = biological target: T3, Cytochrome P450 1A2 (Homo sapiens, UniProt P05177); experiment: Inhibition of CYP1A2; assay type: ADME
T3 sequence (P05177 whole entry): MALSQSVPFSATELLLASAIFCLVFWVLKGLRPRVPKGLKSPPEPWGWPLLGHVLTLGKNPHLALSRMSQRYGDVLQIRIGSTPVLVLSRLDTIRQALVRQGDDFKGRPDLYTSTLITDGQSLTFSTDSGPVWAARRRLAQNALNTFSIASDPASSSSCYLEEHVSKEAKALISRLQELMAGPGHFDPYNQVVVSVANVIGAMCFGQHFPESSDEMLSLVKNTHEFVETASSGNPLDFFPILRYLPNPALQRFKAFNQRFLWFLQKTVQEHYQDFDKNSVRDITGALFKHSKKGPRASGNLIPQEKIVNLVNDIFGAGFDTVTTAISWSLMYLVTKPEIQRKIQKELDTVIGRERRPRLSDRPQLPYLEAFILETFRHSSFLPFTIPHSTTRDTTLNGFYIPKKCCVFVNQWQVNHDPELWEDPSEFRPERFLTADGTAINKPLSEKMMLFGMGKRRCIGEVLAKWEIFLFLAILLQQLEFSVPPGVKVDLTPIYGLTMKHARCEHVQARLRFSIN

Mus musculus [5] = experiment: Antidiabetic activity in fasting insulin-resistant ob/ob mouse assessed as improvement in glucose sensitivity at 30 mg/kg, po administered once daily for 15 days measured on day 12 of dosing by OGTT method; assay type: functional, organism-based; set-up: dose 30 mg/kg
Cytochrome P450 2D6 = Cytochrome P450 2D6 (Homo sapiens, UniProt P10635); experiment: Inhibition of CYP2D6; assay type: ADME
Chain of Cytochrome P450 2D6 (P10635 whole entry): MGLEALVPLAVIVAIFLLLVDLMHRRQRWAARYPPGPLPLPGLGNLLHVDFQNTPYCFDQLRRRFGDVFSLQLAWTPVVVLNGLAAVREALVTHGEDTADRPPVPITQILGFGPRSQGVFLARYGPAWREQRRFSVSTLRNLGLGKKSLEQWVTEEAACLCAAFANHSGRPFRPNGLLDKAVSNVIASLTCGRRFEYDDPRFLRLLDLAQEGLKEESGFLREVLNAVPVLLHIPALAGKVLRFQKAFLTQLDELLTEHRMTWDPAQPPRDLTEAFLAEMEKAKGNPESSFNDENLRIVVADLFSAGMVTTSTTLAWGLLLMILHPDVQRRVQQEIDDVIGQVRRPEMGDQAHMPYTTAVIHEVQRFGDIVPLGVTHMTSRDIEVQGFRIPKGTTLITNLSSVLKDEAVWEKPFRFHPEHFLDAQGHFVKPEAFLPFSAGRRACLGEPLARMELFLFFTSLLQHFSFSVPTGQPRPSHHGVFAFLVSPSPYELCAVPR

Mus musculus [6] = experiment: Antidiabetic activity in fasting insulin-resistant ob/ob mouse assessed as decrease in body weight gain at 100 mg/kg, po administered once daily for 15 days; assay type: functional, organism-based; set-up: dose 100 mg/kg
[7] = AUC (0 to infinity) in CD mouse at 10 mg/kg, po; assay type: ADME, organism-based; set-up: time infinity, dose 10 mg/kg, route oral; conditions: plasma
[8] = Aqueous solubility of the compound; assay type: physicochemical
[9] = biological target: T2, Peroxisome proliferator-activated receptor delta; experiment: Induction of human PPARdelta-mediated CPT1a gene expression in human skeletal muscle; assay type: tissue-based, Muscle tissue
[10] = biological target: T4, Peroxisome proliferator-activated receptor gamma (Homo sapiens, UniProt P37231)
T4 sequence (P37231 whole entry): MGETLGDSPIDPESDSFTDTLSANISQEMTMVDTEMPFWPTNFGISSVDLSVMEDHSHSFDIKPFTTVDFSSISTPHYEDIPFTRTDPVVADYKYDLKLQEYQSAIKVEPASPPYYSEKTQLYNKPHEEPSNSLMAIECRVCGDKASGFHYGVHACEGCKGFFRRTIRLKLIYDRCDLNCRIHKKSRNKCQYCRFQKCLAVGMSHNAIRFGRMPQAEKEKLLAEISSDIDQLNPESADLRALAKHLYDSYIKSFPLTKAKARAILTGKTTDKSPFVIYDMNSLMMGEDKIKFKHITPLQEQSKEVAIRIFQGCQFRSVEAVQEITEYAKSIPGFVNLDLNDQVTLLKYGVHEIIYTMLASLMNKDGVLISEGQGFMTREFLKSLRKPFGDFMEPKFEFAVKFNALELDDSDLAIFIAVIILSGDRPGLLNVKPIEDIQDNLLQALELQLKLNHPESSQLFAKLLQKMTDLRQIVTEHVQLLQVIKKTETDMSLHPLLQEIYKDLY
Description: Displacement of [3H]GW 2433 from human PPARgamma by scintillation proximity assay

Cytochrome P450 2C19 = Cytochrome P450 2C19 (Homo sapiens, UniProt P33261); experiment: Inhibition of CYP2C19; assay type: ADME
Chain of Cytochrome P450 2C19 (P33261 whole entry): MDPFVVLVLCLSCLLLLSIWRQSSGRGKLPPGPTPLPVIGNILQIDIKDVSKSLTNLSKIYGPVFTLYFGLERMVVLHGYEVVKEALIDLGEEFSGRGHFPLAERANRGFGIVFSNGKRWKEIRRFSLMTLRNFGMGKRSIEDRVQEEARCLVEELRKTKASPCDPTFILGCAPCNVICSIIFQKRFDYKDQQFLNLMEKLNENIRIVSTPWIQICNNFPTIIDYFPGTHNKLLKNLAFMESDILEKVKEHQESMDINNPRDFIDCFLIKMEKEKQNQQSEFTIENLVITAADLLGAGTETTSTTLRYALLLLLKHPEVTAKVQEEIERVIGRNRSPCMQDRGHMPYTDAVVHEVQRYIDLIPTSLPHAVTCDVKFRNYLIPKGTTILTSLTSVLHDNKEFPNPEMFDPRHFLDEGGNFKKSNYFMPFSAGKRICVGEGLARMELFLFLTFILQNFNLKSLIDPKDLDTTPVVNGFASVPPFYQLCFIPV

Liver microsomes = experiment: Intrinsic clearance in human liver microsomes; assay type: ADME, Microsome
Cytochrome P450 2C9 = Cytochrome P450 2C9 (Homo sapiens, UniProt P11712); experiment: Inhibition of CYP2C9; assay type: ADME
Chain of Cytochrome P450 2C9 (P11712 whole entry): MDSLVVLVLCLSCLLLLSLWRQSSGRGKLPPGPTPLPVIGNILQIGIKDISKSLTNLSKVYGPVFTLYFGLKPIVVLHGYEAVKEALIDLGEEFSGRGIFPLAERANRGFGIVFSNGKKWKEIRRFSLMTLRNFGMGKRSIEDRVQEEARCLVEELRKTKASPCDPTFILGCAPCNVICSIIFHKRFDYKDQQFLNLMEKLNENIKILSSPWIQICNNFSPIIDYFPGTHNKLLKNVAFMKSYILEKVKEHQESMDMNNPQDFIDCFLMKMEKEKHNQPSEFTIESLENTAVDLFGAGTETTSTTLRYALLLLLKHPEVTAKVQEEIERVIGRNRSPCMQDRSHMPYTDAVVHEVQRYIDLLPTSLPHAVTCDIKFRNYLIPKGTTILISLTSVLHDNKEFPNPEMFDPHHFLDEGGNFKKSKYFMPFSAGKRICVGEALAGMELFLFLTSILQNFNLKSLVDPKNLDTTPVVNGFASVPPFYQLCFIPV

[11] = biological target: T2, Peroxisome proliferator-activated receptor delta; experiment: Induction of human PPARdelta-mediated PDK4 gene expression in human skeletal muscle; assay type: tissue-based, Muscle tissue
Cytochrome P450 3A4 = Cytochrome P450 3A4 (Homo sapiens, UniProt P08684); experiment: Inhibition of CYP3A4; assay type: ADME
Chain of Cytochrome P450 3A4 (P08684 whole entry): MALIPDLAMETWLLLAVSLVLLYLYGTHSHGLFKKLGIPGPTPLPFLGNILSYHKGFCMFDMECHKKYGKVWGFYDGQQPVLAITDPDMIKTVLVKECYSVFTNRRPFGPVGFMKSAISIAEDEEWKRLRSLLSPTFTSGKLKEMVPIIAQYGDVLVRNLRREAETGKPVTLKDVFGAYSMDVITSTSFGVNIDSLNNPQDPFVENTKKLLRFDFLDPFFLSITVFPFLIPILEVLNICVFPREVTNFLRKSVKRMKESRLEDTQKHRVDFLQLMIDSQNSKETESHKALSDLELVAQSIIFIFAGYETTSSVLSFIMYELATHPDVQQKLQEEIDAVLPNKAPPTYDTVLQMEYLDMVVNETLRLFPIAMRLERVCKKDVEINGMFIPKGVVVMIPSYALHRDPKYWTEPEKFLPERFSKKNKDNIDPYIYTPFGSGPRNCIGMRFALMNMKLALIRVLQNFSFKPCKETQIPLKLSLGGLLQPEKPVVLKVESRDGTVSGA

[12] = Half life in CD mouse at 10 mg/kg, po; assay type: ADME, organism-based; set-up: dose 10 mg/kg, route oral; conditions: in vivo
Mus musculus [13] = experiment: Antidiabetic activity in po dosed fasting insulin-resistant ob/ob mouse assessed as improvement in glucose sensitivity administered once daily for 15 days measured on day 12 of dosing by OGTT method; assay type: functional, organism-based
[14] = Permeability across artificial membrane; assay type: ADME; conditions: PAMPA; read-out: permeability

CCCCN(c1cccc(-c2ccc(Cl)cc2)c1C)S(=O)(=O)c1ccc(OC(C)C(=O)O)c(C)c1C (configuration not stated)
IC50 [1]: 20000 nM | EC50 [2]: 25.1 nM | IC50 [3]: 50.1 nM | AUC (Mus musculus [4]): 575 ng·h/mL/mg/kg

CCCCN(c1cccc(-c2ccc(C(F)(F)F)cc2)c1Cl)S(=O)(=O)c1ccc(OC(C)C(=O)O)c(C)c1C (configuration not stated)
IC50 [1]: 7940 nM | IC50 (Cytochrome P450 1A2): > 3160 nM | Activity (Mus musculus [5]): Active | IC50 (Cytochrome P450 2D6): > 3160 nM | Activity (Mus musculus [6]): Active | AUC(0-inf) [7]: 2480 ng·h/mL | solubility [8]: 140 µM (≈ 81.8 µg/mL) | EC50 [9]: 3.98 nM | IC50 [10]: 6310 nM | EC50 [2]: 2.51 nM | IC50 (Cytochrome P450 2C19): > 3160 nM | CL (Liver microsomes): 18 µL/min/mg | IC50 (Cytochrome P450 2C9): 794 nM | IC50 [3]: 6.31 nM | EC50 [11]: 10 nM | IC50 (Cytochrome P450 3A4): > 3160 nM | half-life [12]: 4.3 h | Activity (Mus musculus [13]): Dose-dependent effect | Papp [14]: 25 ×10⁻⁶ cm/s

CCCCN(c1cccc(-c2ccc(OC(F)(F)F)cc2)c1Cl)S(=O)(=O)c1ccc(OC(C)C(=O)O)c(C)c1C (configuration not stated)
IC50 [1]: 10000 nM | IC50 (Cytochrome P450 1A2): > 3160 nM | Activity (Mus musculus [5]): Active | IC50 (Cytochrome P450 2D6): > 3160 nM | Activity (Mus musculus [6]): Active | AUC(0-inf) [7]: 5870 ng·h/mL | solubility [8]: 140 µM (≈ 84 µg/mL) | EC50 [9]: 10 nM | IC50 [10]: 6310 nM | EC50 [2]: 2.51 nM | IC50 (Cytochrome P450 2C19): > 3160 nM | CL (Liver microsomes): 28 µL/min/mg | IC50 (Cytochrome P450 2C9): 794 nM | IC50 [3]: 15.8 nM | EC50 [11]: 25.1 nM | IC50 (Cytochrome P450 3A4): > 3160 nM | half-life [12]: 5.4 h | Activity (Mus musculus [13]): Dose-dependent effect | Papp [14]: 25 ×10⁻⁶ cm/s
